# How the values were obtained:
# Solubility in MPK = type: physicochemical; conditions: solvent MPK
SMILES,Solubility in MPK (Solubility in MPK) [%],melting point [°C]
C=CC(=O)OCCCCCCOc1ccc(C(=O)Oc2ccc(OC(=O)c3ccc(OCCCCCCOC(=O)C=C)cc3)c(C(=O)OCCCCCCCCOc3ccc(-c4ccc(C#N)cc4)cc3)c2)cc1,7.2,72
C=CC(=O)OCCCCCCOc1ccc(C(=O)Oc2ccc(OC(=O)c3ccc(OCCCCCCOC(=O)C=C)cc3)c(C(=O)OCCOCCOc3ccc(-c4ccc(C#N)cc4)cc3)c2)cc1,33.2,54

# — patent publication US6733690B1, “Laterally substituted curable liquid crystals” (Rolic AG, priority 1999, dated 2004)
